From patent US20220105170A1 (priority 2019, published 2022)

Tested on: peripheral blood lymphocytes collected from swine exposed to ASFV
Format: cell-based

Substance | Number of Spots
2134 (KNYFRFFKK) [compound 2134] | 16
2137 (KNYFRFFKKL) [compound 2137] | 12
2139 (NYFRFFKKLL) [compound 2139] | 19
2140 (YFRFFKKLL) [compound 2140] | 16
2141 (RFFKKLLTHF) [compound 2141] | 12
2142 (RFFKKLLTH) [compound 2142] | 12
2146 (KLLTHFNIYR) [compound 2146] | 16
2159 (RIHTRFGQYY) [compound 2159] | 15
2166 (KIDDFIRLY) [compound 2166] | 13
2171 (FIRLYPHIFY) [compound 2171] | 18
2175 (RLYPHIFYR) [compound 2175] | 16
2181 (YPHIFYRPLY) [compound 2181] | 12
2183 (PHIFYRPLYR) [compound 2183] | 15
2185 (HIFYRPLYRY) [compound 2185] | 15
2193 (ALNRHITTY) [compound 2193] | 12
2194 (RSCDYAPGFY) [compound 2194] | 12
2197 (KVRNKAIELY) [compound 2197] | 17
2205 (SVEELLSAV) [compound 2205] | 13
2211 (ASFKEGLSL) [compound 2211] | 12
2213 (KTSSNIILY) [compound 2213] | 12
2222 (ISFSEMLTRYW) [compound 2222] | 12
2223 (SFSEMLTRY) [compound 2223] | 12
2225 (SFSEMLTRYW) [compound 2225] | 12
2241 (YNLTEAIQYF) [compound 2241] | 14
2242 (YNLTEAIQY) [compound 2242] | 12
2251 (AIQYFYQRY) [compound 2251] | 12
2252 (AIQYFYQRYR) [compound 2252] | 13
2265 (RYRHFKDWRLI) [compound 2265] | 13
2266 (YRHFKDWRL) [compound 2266] | 14
VLIEFLTGFF [SEQ ID NO. 554] | 16
